This is an account of results in PMC7683729, “Altered conformational sampling along an evolutionary trajectory changes the catalytic activity of an enzyme” (Nature Communications, 2020).

For one data set, the system named is T1, AncCDT-5.
T1 construct: ancestral protein ending at Lys235; pDOTS7 vector, His6-tagged, expressed in E. coli delta-pheA; IMAC and SEC; predominantly monomeric
Description: end-point spectrophotometric phenylpyruvate formation ([…] nm). Conditions: equal volumes of protein in 20 mM Na2HPO4, 150 mM NaCl pH 7.4 and prephenate in 50 mM Na2HPO4 pH 8.0; room temperature (20–25 °C). It counts as biochemical.

Data set [1] deals with the molecule itself. The data set can be described thus: SEC-MALS; 100 μL of each protein loaded at 10 mg mL^-1 on Superdex 200 10/300 GL; 20 mM Na2HPO4, 150 mM NaCl, pH 7.4; 0.5 mL min^-1; single experiment (n = 1).

For `O=C(O)C(=O)CC1(C(=O)O)C=CC(O)C=C1` (centres unmarked) [prephenate], in the data set on AncCDT-5, the Km worked out at 277 ± 4 µM.

B1: cyclohexadienyl dehydratase from Pseudomonas aeruginosa (PaCDT) (enzyme, UniProt Q01269 26-268, looked up)
chain: QESRLDRILESGVLRVATTGDYKPFSYRTEEGGYAGFDVDMAQRLAESLGAKLVVVPTSWPNLMRDFADDRFDIAMSGISINLERQRQAYFSIPYLRDGKTPITLCSEEARFQTLEQIDQPGVTAIVNPGGTNEKFARANLKKARILVHPDNVTIFQQIVDGKADLMMTDAIEARLQSRLHPELCAVHPQQPFDFAEKAYLLPRDEAFKRYVDQWLHIAEQSGLLRQRMEHWLEYRWPTAHGK
notes: cyclohexadienyl dehydratase, Pseudomonas aeruginosa, UniProt Q01269 residues 26-268; PDB 5HPQ and 6BQE number - 11); source: E. coli K-12 ΔpheA (pDOTS7), IMAC-purified; not shown: His6, N-terminal, kept
B1: in data set [1], the “stoichiometry N” value came out at 3.
